According to ChEMBL document CHEMBL4359907, “Scalable and cost-effective tosylation-mediated synthesis of antifungal and fungal diagnostic 6″-Modified amphiphilic kanamycins” (Eur J Med Chem, 2019):
Values after ≈ are worked out from the molar mass of the structure shown.

Columns and labels:
Staphylococcus aureus [1] = assay: Antibacterial activity against methicillin-resistant Staphylococcus aureus ATCC 43300 incubated for 18 hrs by two fold dilution method; type: functional; conditions: ATCC 43300, 18 h
Diutina rugosa = assay: Antifungal activity against Candida rugosa 95-967 incubated for 24 to 36 hrs by two fold dilution method; type: functional
Staphylococcus aureus [2] = assay: Antibacterial activity against methicillin-resistant Staphylococcus aureus ATCC 33591 incubated for 18 hrs by two fold dilution method; type: functional; conditions: ATCC 33591, 18 h
Cryptococcus neoformans [3] = assay: Antifungal activity against Cryptococcus neoformans H99 incubated for 24 to 36 hrs by two fold dilution method; type: functional
Candida albicans [4] = assay: Antifungal activity against Candida albicans B-311 incubated for 24 to 36 hrs by two fold dilution method; type: functional
Candida albicans [5] = assay: Antifungal activity against azole-susceptible Candida albicans MYA2876 incubated for 24 to 36 hrs by two fold dilution method; type: functional
Candida albicans [6] = assay: Antifungal activity against azole-resistant Candida albicans 64124 incubated for 24 to 36 hrs by two fold dilution method; type: functional
Rhodotorula mucilaginosa = assay: Antifungal activity against Rhodotorula pilimanae ATCC 26423 incubated for 24 to 36 hrs by two fold dilution method; type: functional
Cryptococcus neoformans [7] = assay: Antifungal activity against Cryptococcus neoformans VR-54 incubated for 24 to 36 hrs by two fold dilution method; type: functional
Candida tropicalis = assay: Antifungal activity against Candida tropicalis 95-41 incubated for 24 to 36 hrs by two fold dilution method; type: functional
Candida parapsilosis = assay: Antifungal activity against azole-resistant Candida parapsilosis Cas08-0490 incubated for 24 to 36 hrs by two fold dilution method; type: functional; conditions: Lodderomyces parapsilosis
Escherichia coli = assay: Antibacterial activity against Escherichia coli ATCC 25922 incubated for 18 hrs by two fold dilution method; type: functional; conditions: ATCC 25922, 18 h
Staphylococcus aureus [8] = assay: Antibacterial activity against Staphylococcus aureus ATCC 25923 incubated for 18 hrs by two fold dilution method; type: functional; conditions: ATCC 25923, 18 h
Fusarium graminearum = assay: Antifungal activity against Fusarium graminearum B4-5A incubated for 24 to 36 hrs by two fold dilution method; type: functional
HeLa = assay: Cytotoxicity against human HeLa cells assessed as reduction in cell viability incubated for 24 hrs by MTT assay; type: cell-based

Row | SMILES | MIC (Staphylococcus aureus [1]) | MIC (Diutina rugosa) | MIC (Staphylococcus aureus [2]) | MIC (Cryptococcus neoformans [3]) | MIC (Candida albicans [4]) | MIC (Candida albicans [5]) | MIC (Candida albicans [6]) | MIC (Rhodotorula mucilaginosa) | MIC (Cryptococcus neoformans [7]) | MIC (Candida tropicalis) | MIC (Candida parapsilosis) | MIC (Escherichia coli) | MIC (Staphylococcus aureus [8]) | MIC (Fusarium graminearum) | IC50 (HeLa)
1 | CCCCCCCCSC[C@H]1O[C@H](O[C@@H]2[C@@H](O)[C@H](O[C@H]3O[C@H](CN)[C@@H](O)[C@H](O)[C@H]3O)[C@@H](N)C[C@H]2N)[C@H](O)[C@@H](N)[C@@H]1O.Cl.Cl.Cl.Cl | 256 µg/mL | 256 µg/mL | 256 µg/mL | 128 µg/mL | > 256 µg/mL | 256 µg/mL | 128 µg/mL | 32 µg/mL | 64 µg/mL | > 256 µg/mL | > 256 µg/mL | 128 µg/mL | 128 µg/mL | 128 µg/mL | –
2 | Cc1ccc(S(=O)(=O)OC[C@H]2O[C@H](O[C@@H]3[C@@H](O)[C@H](O[C@H]4O[C@H](CN)[C@@H](O)[C@H](O)[C@H]4O)[C@@H](N)C[C@H]3N)[C@H](O)[C@@H](N)[C@@H]2O)cc1.Cl.Cl.Cl.Cl | > 256 µg/mL | > 256 µg/mL | > 256 µg/mL | > 256 µg/mL | > 256 µg/mL | > 256 µg/mL | > 256 µg/mL | 128 µg/mL | > 256 µg/mL | > 256 µg/mL | > 256 µg/mL | 16 µg/mL | 32 µg/mL | 128 µg/mL | –
3 | CCCCCCCCCCCCCCNC[C@H]1O[C@H](O[C@@H]2[C@@H](O)[C@H](O[C@H]3O[C@H](CN)[C@@H](O)[C@H](O)[C@H]3O)[C@@H](N)C[C@H]2N)[C@H](O)[C@@H](N)[C@@H]1O.Cl.Cl.Cl.Cl.Cl | 16 µg/mL | 4 µg/mL | 16 µg/mL | 2 µg/mL | 8 µg/mL | 8 µg/mL | 4 µg/mL | 2 µg/mL | 2 µg/mL | 4 µg/mL | 4 µg/mL | 32 µg/mL | 16 µg/mL | 2 µg/mL | 60.8 µg/mL
4 | CCCCCCNC[C@H]1O[C@H](O[C@@H]2[C@@H](O)[C@H](O[C@H]3O[C@H](CN)[C@@H](O)[C@H](O)[C@H]3O)[C@@H](N)C[C@H]2N)[C@H](O)[C@@H](N)[C@@H]1O.Cl.Cl.Cl.Cl.Cl | > 256 µg/mL | > 256 µg/mL | > 256 µg/mL | 128 µg/mL | > 256 µg/mL | > 256 µg/mL | > 256 µg/mL | 128 µg/mL | 128 µg/mL | > 256 µg/mL | > 256 µg/mL | 256 µg/mL | 64 µg/mL | 64 µg/mL | –
5 | CCCCCCCCS(=O)(=O)OC[C@H]1O[C@H](O[C@@H]2[C@@H](O)[C@H](O[C@H]3O[C@H](CN)[C@@H](O)[C@H](O)[C@H]3O)[C@@H](N)C[C@H]2N)[C@H](O)[C@@H](N)[C@@H]1O | – | 32 µg/mL (≈ 48.4 µM) | – | 4 µg/mL (≈ 6.05 µM) | 16 µg/mL (≈ 24.2 µM) | 16 µg/mL (≈ 24.2 µM) | 16 µg/mL (≈ 24.2 µM) | 4 µg/mL (≈ 6.05 µM) | 4 µg/mL (≈ 6.05 µM) | 16 µg/mL (≈ 24.2 µM) | 16 µg/mL (≈ 24.2 µM) | – | – | 8 µg/mL (≈ 12.1 µM) | –
6 | CCCCCCCCCCCCNC[C@H]1O[C@H](O[C@@H]2[C@@H](O)[C@H](O[C@H]3O[C@H](CN)[C@@H](O)[C@H](O)[C@H]3O)[C@@H](N)C[C@H]2N)[C@H](O)[C@@H](N)[C@@H]1O.Cl.Cl.Cl.Cl.Cl | 32 µg/mL | 16 µg/mL | 64 µg/mL | 2 µg/mL | 32 µg/mL | 64 µg/mL | 16 µg/mL | 2 µg/mL | 2 µg/mL | 32 µg/mL | 32 µg/mL | 16 µg/mL | 64 µg/mL | 2 µg/mL | > 100 µg/mL
7 | NC[C@H]1O[C@H](O[C@H]2[C@H](O)[C@@H](O[C@H]3O[C@H](CO)[C@@H](O)[C@H](N)[C@H]3O)[C@H](N)C[C@@H]2N)[C@H](O)[C@@H](O)[C@@H]1O [KANAMYCIN] | > 256 µg/mL | – | > 256 µg/mL | – | ≥ 256 µg/mL | ≥ 256 µg/mL | ≥ 256 µg/mL | ≥ 256 µg/mL | ≥ 256 µg/mL | – | – | 4 µg/mL (≈ 8.26 µM) | 4 µg/mL (≈ 8.26 µM) | ≥ 256 µg/mL | –
8 | CCCCCCCCCCCCCCCCSC[C@H]1O[C@H](O[C@@H]2[C@@H](O)[C@H](O[C@H]3O[C@H](CN)[C@@H](O)[C@H](O)[C@H]3O)[C@@H](N)C[C@H]2N)[C@H](O)[C@@H](N)[C@@H]1O.Cl.Cl.Cl.Cl | 16 µg/mL | 4 µg/mL | 32 µg/mL | 2 µg/mL | 4 µg/mL | 4 µg/mL | 4 µg/mL | 2 µg/mL | 2 µg/mL | 4 µg/mL | 4 µg/mL | 32 µg/mL | 16 µg/mL | 2 µg/mL | 37.7 µg/mL
